Reference: patent publication US10144758B2, “Deuterated bile acids” (Metselex, Inc., priority 2013, dated 2018)

Columns and labels:
[1] = test system: primary rat hepatocytes; assay: Cytotoxicity of compound alone (ApoTox-Glo Triplex / LDH Cytotoxicity Detection Kit); format: cell-based
Protocol: Primary rat hepatocytes were isolated from male rats (100-150 grams) by collagenase perfusion (as described by Solá S, et al., 2003, Journal of Biological Chemistry 278: 48831-48838)). Briefly, rats were anesthetized with phenobarbital sodium (100 mg/kg body weight) injected into the peritoneal cavity. After administration of heparin (200 units/kg body weight) in the tail vein, the animal's abdomen was opened and the portal vein exposed and cannulated. The liver was then perfused at 37° C. in situ with a calcium-free Hanks' Balanced Salt Solution (HBSS) for about 10 minutes, and then with 0.05% collagenase type IV in calcium-present HBSS for another 10 minutes. Hepatocyte suspensions were obtained by passing collagenase-digested livers through 125 μm gauze and washing cells in Complete William's E medium (William's E medium, Sigma-Aldrich Corp., St Louis, Mo., USA) supplemented with 26 mM sodium bicarbonate, 23 mM HEPES, 0.01 units/mL insulin, 2 mM L-glutamine, 10 nM dexamethasone, 100 units/mL penicillin, and 10% heat-inactivated fetal bovine serum (Invitrogen Corp., Carlsbad, Calif., USA). Viable primary rat hepatocytes were enriched by low-speed centrifugation at 200 g for 3 minutes. Cell viability was determined by trypan blue exclusion and was typically 80-85%. After isolation, hepatocytes were resuspended in Complete William's E medium and plated on Primaria™ tissue culture dishes (BD Biosciences, San Jose, Calif., USA) at 5×10^4 cells/cm^2. Cells were maintained at 37° C. in a humidified atmosphere of 5% CO2 for 6 hours to allow attachment. Plates were then washed with medium to remove dead cells and incubated in Complete William's E medium supplemented with either 100-400 μM UDCA (Sigma-Aldrich Corp.), 100-400 μM deuterated UDCA (compound 5), or no addition (control). Eight hours after pre-incubation, cells were exposed to 1 nM recombinant human TGF-β1 (R&D Systems Inc., Minneapolis, Minn., USA) for 36 hours, or to 50 or 100 μM DCA for 16 hours before processing for cell viability, cytotoxicity and apoptosis assays.
(§1) The ApoTox-Glo™ Triplex Assay (Promega Corp., Madison, Wis., USA) was used to evaluate cell viability, cytotoxicity and caspase-3/7 activity, according to the manufacturer's protocol, using a GloMax+ Multi Detection System (Promega Corp.). General cell death was also evaluated using the lactate dehydrogenase (LDH) Cytotoxicity Detection Kit^PLUS (Roche Diagnostics GmbH, Mannheim, Germany), following the manufacturer's instructions.

[2] = test system: primary rat hepatocytes; assay: DCA-induced caspase-3/7 activity (ApoTox-Glo Triplex); format: cell-based; settings: 50 and 100 μM DCA; pretreatment; FIG. 7B
Protocol: Primary rat hepatocytes were isolated from male rats (100-150 grams) by collagenase perfusion (as described by Solá S, et al., 2003, Journal of Biological Chemistry 278: 48831-48838)). Briefly, rats were anesthetized with phenobarbital sodium (100 mg/kg body weight) injected into the peritoneal cavity. After administration of heparin (200 units/kg body weight) in the tail vein, the animal's abdomen was opened and the portal vein exposed and cannulated. The liver was then perfused at 37° C. in situ with a calcium-free Hanks' Balanced Salt Solution (HBSS) for about 10 minutes, and then with 0.05% collagenase type IV in calcium-present HBSS for another 10 minutes. […] Cell viability was determined by trypan blue exclusion and was typically 80-85%. […]
as §1, with “instructions. […]” for “instructions.”

## 7,8-[^2H]-3α,7α-dihydroxy-5β-cholan-24-oic acid/7-[^2H]-3α,7α-dihydroxy-5β-cholan-24-oic acid [Compound 5]
[1]; 400 μM, 24 and 44 hours
  cytotoxicity compared with UDCA: comparable to UDCA cytotoxicity
[1]; 400 μM, 24 hours
  increase in cytotoxicity: ~2%
[1]; 400 μM, 44 hours
  increase in cytotoxicity: ~15%
[1]; 100 and 200 μM
  signs of cytotoxicity: no relevant signs of cytotoxicity
[2]
  inhibition of caspase activity: more effective than UDCA
